SMILES strings stand for the structures.

One test concerns the target CDK13 (Homo sapiens (Human), UniProt Q14004). The experiment in a line: Biochemical assay for CDK13, LanthaScreen Eu Kinase Binding Assay. The conditions noted are these: for Ratio CDK7/CDK13: ratio of IC50; for IC50: kinase tracer 236 100 nM. From the text: Binding of an inhibitor to the kinase competes for binding with the tracer, resulting in a loss of FRET signal.

The next test addresses CDK12 (Homo sapiens (Human), UniProt Q9NYV4). Nature of the test: Biochemical assay for CDK12 (IC50 determination), LANCE TR-FRET. The conditions noted are these: for Ratio CDK7/CDK12: ratio of IC50; for IC50: ATP 100 μM, 60 min pre-incubation. The protocol: The inhibitory activity of the test compounds was assessed by the LANCE TR-FRET assay, which detects the ATP-dependent phosphorylation of an ULight-4E-BP1 (Thr37/Thr46) substrate peptide (100 nM) by CDK12 (30 nM). Briefly, the enzyme reaction was run in reaction buffer (25 mM HEPES (pH 7.5), 10 mM MgCl2, 0.01% BSA, 0.01% Triton x, 1 mM DTT). The assay was performed in 384-well plate format. The end concentration of the ATP substrate was 100 μM, and that of the ULight-4E-BP1 (Thr37/Thr46) substrate peptide was 100 nM, and of CDK12 was 30 nM. Pre-incubation of the compound and enzyme was performed for 60 min at room temperature. After 60 min incubation at room temperature, the reaction was terminated by the addition of 40 mM EDTA and 0.5 nM Eu-labeled anti-phospho-eIF4E-binding protein (Thr37/46) antibody in LANCE detection buffer. […] The readout was calculated as (acceptor counts/donor counts)×1000. The IC50 values were derived by fitting a sigmoidal dose-response curve to a plot of assay readout over inhibitor concentration.
(Time-resolved FRET reads energy transfer from a long-lived donor to a nearby acceptor.)

CDK12, sequence (Q9NYV4 whole entry, looked up, species assumed): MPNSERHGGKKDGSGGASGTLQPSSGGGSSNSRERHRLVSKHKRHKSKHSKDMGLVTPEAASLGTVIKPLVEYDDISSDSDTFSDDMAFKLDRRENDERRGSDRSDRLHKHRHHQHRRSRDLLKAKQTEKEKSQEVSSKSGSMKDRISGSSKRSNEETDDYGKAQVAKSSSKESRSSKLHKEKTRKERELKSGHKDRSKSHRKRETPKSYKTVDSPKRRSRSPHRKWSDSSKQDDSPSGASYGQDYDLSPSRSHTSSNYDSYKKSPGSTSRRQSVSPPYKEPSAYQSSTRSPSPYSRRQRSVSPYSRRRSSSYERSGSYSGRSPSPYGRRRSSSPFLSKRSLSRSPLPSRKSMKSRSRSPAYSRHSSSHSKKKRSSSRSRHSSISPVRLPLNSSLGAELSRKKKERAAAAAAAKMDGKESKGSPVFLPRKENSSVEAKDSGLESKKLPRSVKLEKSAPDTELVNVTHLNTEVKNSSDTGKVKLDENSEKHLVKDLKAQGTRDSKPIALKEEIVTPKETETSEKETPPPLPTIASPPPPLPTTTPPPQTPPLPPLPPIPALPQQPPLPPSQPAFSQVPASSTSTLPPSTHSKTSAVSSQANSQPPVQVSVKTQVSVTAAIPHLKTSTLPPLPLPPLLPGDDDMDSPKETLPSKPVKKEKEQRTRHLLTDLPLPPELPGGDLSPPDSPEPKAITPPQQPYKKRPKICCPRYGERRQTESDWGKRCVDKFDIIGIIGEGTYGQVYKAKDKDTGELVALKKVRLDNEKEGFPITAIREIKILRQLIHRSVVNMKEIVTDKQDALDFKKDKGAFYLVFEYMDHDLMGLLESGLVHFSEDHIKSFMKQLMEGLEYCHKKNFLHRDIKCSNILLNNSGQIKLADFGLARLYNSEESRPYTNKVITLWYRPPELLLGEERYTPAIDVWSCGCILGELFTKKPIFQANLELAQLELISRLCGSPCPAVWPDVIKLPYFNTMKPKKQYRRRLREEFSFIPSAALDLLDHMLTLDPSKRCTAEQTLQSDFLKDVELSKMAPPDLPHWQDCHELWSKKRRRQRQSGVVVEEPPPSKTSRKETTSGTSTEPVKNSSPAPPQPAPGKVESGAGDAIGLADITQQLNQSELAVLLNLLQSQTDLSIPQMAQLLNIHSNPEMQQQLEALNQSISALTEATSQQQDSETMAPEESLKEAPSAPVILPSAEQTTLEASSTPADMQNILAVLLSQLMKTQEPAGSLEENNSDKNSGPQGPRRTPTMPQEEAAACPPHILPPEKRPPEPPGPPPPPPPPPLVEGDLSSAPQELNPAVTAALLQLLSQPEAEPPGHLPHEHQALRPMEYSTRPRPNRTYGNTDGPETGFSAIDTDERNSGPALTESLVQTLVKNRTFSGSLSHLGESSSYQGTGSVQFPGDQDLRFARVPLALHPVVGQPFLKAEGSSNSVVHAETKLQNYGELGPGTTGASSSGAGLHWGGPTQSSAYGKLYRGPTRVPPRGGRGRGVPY
CDK12, sequence (O75909 whole entry partner, looked up, species assumed): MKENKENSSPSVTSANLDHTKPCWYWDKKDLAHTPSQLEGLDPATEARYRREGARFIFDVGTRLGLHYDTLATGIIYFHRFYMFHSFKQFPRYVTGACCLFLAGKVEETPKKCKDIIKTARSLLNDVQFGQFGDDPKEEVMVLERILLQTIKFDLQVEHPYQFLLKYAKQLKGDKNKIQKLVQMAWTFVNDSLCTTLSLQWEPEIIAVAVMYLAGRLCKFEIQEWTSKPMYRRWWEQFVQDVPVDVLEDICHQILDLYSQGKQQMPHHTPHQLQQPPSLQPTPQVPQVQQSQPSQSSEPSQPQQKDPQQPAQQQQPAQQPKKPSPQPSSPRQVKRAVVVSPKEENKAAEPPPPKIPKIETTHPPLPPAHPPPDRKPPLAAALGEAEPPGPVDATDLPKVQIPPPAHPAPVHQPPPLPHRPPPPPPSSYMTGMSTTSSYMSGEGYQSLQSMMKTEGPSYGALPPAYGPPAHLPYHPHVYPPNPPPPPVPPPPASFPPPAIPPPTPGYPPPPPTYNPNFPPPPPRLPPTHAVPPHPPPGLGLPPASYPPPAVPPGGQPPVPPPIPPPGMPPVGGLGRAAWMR
CDK13, sequence (Q14004 whole entry, looked up, species assumed): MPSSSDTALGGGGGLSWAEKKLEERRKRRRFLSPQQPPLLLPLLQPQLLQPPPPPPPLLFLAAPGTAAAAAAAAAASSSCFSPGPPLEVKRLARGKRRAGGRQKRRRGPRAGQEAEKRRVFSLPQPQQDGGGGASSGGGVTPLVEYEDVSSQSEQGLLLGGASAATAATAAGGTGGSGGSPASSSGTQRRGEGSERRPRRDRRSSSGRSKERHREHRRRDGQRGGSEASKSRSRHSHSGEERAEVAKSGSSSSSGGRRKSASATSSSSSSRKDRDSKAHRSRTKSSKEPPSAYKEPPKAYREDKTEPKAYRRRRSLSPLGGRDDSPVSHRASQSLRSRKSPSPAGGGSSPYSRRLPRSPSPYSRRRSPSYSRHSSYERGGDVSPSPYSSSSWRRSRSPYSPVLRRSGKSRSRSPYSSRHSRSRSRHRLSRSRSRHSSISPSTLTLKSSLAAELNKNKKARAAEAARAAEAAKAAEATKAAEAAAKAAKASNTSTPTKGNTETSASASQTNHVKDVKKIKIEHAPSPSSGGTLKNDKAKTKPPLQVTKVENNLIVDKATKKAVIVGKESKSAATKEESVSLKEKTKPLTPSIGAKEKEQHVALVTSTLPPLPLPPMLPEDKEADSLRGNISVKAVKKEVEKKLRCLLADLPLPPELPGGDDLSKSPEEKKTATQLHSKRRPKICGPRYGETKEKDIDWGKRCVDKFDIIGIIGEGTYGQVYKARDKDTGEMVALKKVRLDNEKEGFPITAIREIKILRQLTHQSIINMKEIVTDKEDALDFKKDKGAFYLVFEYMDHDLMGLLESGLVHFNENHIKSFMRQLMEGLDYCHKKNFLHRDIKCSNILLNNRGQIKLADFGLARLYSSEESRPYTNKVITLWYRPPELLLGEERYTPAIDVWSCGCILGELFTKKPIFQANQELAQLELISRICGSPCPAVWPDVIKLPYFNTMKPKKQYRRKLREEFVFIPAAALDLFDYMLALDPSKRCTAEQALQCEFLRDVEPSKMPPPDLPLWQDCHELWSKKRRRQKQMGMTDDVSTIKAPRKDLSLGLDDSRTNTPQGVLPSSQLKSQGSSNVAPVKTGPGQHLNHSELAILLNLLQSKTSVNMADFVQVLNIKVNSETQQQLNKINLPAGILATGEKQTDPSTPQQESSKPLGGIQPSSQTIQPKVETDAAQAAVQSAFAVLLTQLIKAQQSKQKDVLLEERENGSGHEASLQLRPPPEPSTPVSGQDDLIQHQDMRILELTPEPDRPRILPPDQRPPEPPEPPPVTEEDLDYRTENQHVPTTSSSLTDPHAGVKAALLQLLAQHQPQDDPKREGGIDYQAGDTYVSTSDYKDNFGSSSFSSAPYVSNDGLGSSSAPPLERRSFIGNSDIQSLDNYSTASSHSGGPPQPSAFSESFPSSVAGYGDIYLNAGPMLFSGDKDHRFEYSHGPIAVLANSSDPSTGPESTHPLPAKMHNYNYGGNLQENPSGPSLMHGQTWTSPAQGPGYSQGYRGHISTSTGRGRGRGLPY
CDK13, sequence (O75909 whole entry partner, looked up, species assumed): as the sequence (O75909 whole entry partner, looked up, species assumed) above

For the compound `C=CC(=O)NC1CCC(c2ccc(C(C)C(=O)Nc3cc(C4CC4)n[nH]3)cc2)CC1` (centres unmarked) [Compound 10, N-(4-(4-(1-((5-cyclopropyl-1H-pyrazol-3-yl)amino)-1-oxopropan-2-yl)phenyl)cyclohexyl)acrylamide], the “Ratio CDK7/CDK13” value on CDK13 was 305.11. Also, the “Ratio CDK7/CDK12” value at CDK12 turned out to be 7.42.

As to `C=CC(=O)NC1CCC(c2ccc(C(C)C(=O)Nc3cc(C4CC4)n[nH]3)cc2)CC1` (centres unmarked) [Compound 11, N-(4-(4-(1-((5-cyclopropyl-1H-pyrazol-3-yl)amino)-1-oxopropan-2-yl)phenyl)cyclohexyl)acrylamide], at CDK13, the “Ratio CDK7/CDK13” value is listed as 81.02. For the same compound, the “Ratio CDK7/CDK12” value at CDK12 stood at 3.57.

Take `C[C@H](C(=O)Nc1cc(C2CC2)[nH]n1)c1ccc(C2=CCN(C(=O)/C=C/CN3CCOCC3)CC2)cc1` [Compound 16, (S,E)-N-(5-cyclopropyl-1H-pyrazol-3-yl)-2-(4-(1-(4-morpholinobut-2-enoyl)-1,2,3,6-tetrahydropyridin-4-yl)phenyl)propanamide]: the IC50 (in general, the midpoint of a concentration-inhibition curve) on CDK13 was found to be 35 nM; against CDK12, 646 nM.

Consider `C=CC(=O)N1CCN(c2ccc(C(C)C(=O)Nc3cc(C4CC4)[nH]n3)cc2)CC1` (centres unmarked) [Compound 18, 2-(4-(4-acryloylpiperazin-1-yl)phenyl)-N-(5-cyclopropyl-1H-pyrazol-3-yl)propanamide], for which the “Ratio CDK7/CDK13” value on CDK13 was 198.46. The “Ratio CDK7/CDK12” value on CDK12 worked out at 9.75.

For `C=CC(=O)N1CCC=C(c2ccc(C(CC)C(=O)Nc3cc(C4CC4)[nH]n3)cn2)C1` (centres unmarked) [Compound 39, 2-(1′-acryloyl-1′,2′,5′,6′-tetrahydro-[2,3′-bipyridin]-5-yl)-N-(5-cyclopropyl-1H-pyrazol-3-yl)butanamide], the IC50 on CDK13 came out at 93 nM; at CDK12, 41 nM.

In the case of `C=CC(=O)N1CCC=C(c2ccc(C(C(=O)Nc3cc(C4CC4)[nH]n3)C(C)C)cn2)C1` (centres unmarked) [Compound 43, 2-(1′-acryloyl-1′,2′,5′,6′-tetrahydro-[2,3′-bipyridin]-5-yl)-N-(5-cyclopropyl-1H-pyrazol-3-yl)-3-methylbutanamide], the IC50 at CDK13 turned out to be 54 nM; on CDK12, 178 nM.

As to `C=CC(=O)N1CC=C(c2ccc(C(C)C(=O)Nc3cc(C4CC4)[nH]n3)cn2)C1` (centres unmarked) [Compound 47, 2-(6-(1-acryloyl-2,5-dihydro-1H-pyrrol-3-yl)pyridin-3-yl)-N-(5-cyclopropyl-1H-pyrazol-3-yl)propanamide], the figures for the 50% inhibitory concentration (IC50) at CDK13 and on CDK12 were 6 nM and 676 nM, respectively.

As to `C/C=C/C(=O)N1CCC=C(c2ccc(CC(=O)Nc3cc(C4CC4)[nH]n3)cn2)C1` [Compound 54, (E)-2-(1′-(but-2-enoyl)-1′,2′,5′,6′-tetrahydro-[2,3′-bipyridin]-5-yl)-N-(5-cyclopropyl-1H-pyrazol-3-yl)acetamide], the results for the IC50 at CDK13 and against CDK12 were 3 nM and 94 nM, respectively.

On CDK12, `CC(C)=CC(=O)N1CCC=C(c2ccc(CC(=O)Nc3cc(C4CC4)[nH]n3)cn2)C1` [Compound 55, N-(5-cyclopropyl-1H-pyrazol-3-yl)-2-(1′-(3-methylbut-2-enoyl)-1′,2′,5′,6′-tetrahydro-[2,3′-bipyridin]-5-yl)acetamide] yielded an IC50 of 178 nM.

With `C=C(C)C(=O)N1CCC=C(c2ccc(CC(=O)Nc3cc(C4CC4)[nH]n3)cn2)C1` [Compound 57, N-(5-cyclopropy1-1H-pyrazol-3-yl)-2-(1′-methacryloyl-1′,2′,5′,6′-tetrahydro-[2,3′-bipyridin]-5-yl)acetamide], the IC50 at CDK13 worked out at 10 nM; on CDK12, 140 nM.

Consider `N#CN1CC=C(c2ccc(CC(=O)Nc3cc(C4CC4)[nH]n3)cn2)CC1` [Compound 62, 2-(1′-cyano-1′,2′,3′,6′-tetrahydro-[2,4′-bipyridin]-5-yl)-N-(5-cyclopropyl-1H-pyrazol-3-yl)acetamide], for which the IC50 against CDK12 worked out at 4 nM.

Values taken from US10894786B2, “Substituted pyrazole derivatives as selective CDK12/13 inhibitors” (Aurigene Discovery Technologies Limited, priority 2018, dated 2021).
